Test results taken from US20250114325A1 (JIANGSU PROVINCE HOSPITAL OF CHINESE MEDICINE, priority 2022, published 2025).

Experiments:
Assay type in all cases: cell-based, human
[1] = test system: Hela cells; assay: Cell proliferation experiment (CCK-8 cell viability); conditions: single agent, 24 h, 48 h, 72 h, dose and time-dependent
Experimental: (§1) Assay of cell viability by CCK-8 kit: Cells (cell density: 1000 cells/well) were inoculated in a 96-well plate and cultured for 24 hours. […] Cell proliferation was detected using Cell Counting Kit-8 (CCK-8).

[2] = test system: SiHa cells; assay: as above; conditions: single agent, 24 h, 48 h, 72 h, dose and time-dependent
Experimental: as §1

[3] = test system: Hela cells; assay: Annexin V-AF647/PI flow cytometry apoptosis assay; conditions: added to Atr-I (BzATP 100 μM or JNJ 20 μM); 48 h
Experimental: (§2) The cell lines selected were human cervical cancer Hela (HPV18+) and Siha (HPV16+) cell lines.
(§3) The proportion of apoptotic cells was measured using the Annexin V-AF647/PI Apoptosis Kit (E-CK-A213; Elabscience Biotechnology, Wuhan, China). The cells in logarithmic growth phase were used and seeded in a culture bottle at a suspension density of 1×10^6 cells/mL, and then cultured in a CO2 incubator for 24 h. […] Subsequently, the cells were re-suspended in 500 μL of the binding buffer. After adding 5 μL of Annexin V-AF647 and 5 μL of PI to the cell suspension, respectively, the cell cycle was assayed using FACSCalibur flow cytometry (BD Biosciences, San Jose, CA, USA). The data were analyzed with FlowJo software (FlowJo, Ashland, OR, USA).

[4] = test system: SiHa cells; assay: Annexin V-AF647/PI flow cytometry apoptosis assay; conditions: added to Atr-I (BzATP 100 μM or JNJ 20 μM); 48 h
Experimental: as §2, §3

Nc1ncnc2c1ncn2[C@@H]1O[C@H](COP(=O)(O)OP(=O)(O)OP(=O)(O)O)[C@@H](OC(=O)c2ccc(C(=O)c3ccccc3)cc2)[C@H]1O [BzATP]
inhibition of growth of Hela cells [1]: significantly inhibited the growth
inhibition of growth of SiHa cells [2]: significantly inhibited the growth
effect on Atr-I-induced apoptosis in Hela cells [3]: inhibited Atr-I-induced apoptosis in Hela cells
effect on Atr-I-induced apoptosis in SiHa cells [4]: had no effect on Atr-I-induced apoptosis in SiHa cells
